Columns and labels:
Leukemia L1210 [1] = test: Activity against Leukemia L1210, intraperitoneal, increase in life span of mice; assay type: in vivo, female mice (BDF1 family); conditions: for Survivors after 60 days / Max. ILS % / Therapeutic ratio TR: ip; for Survivors after 60 days: 6-membered group; for Max. ILS %: 60-day observation, versus control; for Therapeutic ratio TR: O.D./ILS30; for ED (maximum ILS) / ED30: Mus musculus, L1210, ip; for ED (maximum ILS): read-out: O.D. (optimum dosage); for ED30: read-out: ILS30
Outline: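 Mice (female BDF1, 20–23 g) carrying 1×10^5 ip-implanted L1210 cells were given daily ip or oral doses for 5 days; ILS% came from mean survival over 60 days relative to controls.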

Leukemia L1210 [2] = test: Activity against Leukemia L1210, oral, increase in life span of mice; assay type: in vivo, female mice (BDF1 family); conditions: for Survivors after 60 days / Max. ILS % / Therapeutic ratio TR: oral; for Survivors after 60 days: 6-membered group; for Max. ILS %: 60-day observation, versus control; for Therapeutic ratio TR: O.D./ILS30; for ED (maximum ILS) / ED30: Mus musculus, L1210; for ED (maximum ILS): read-out: O.D. (optimum dosage); for ED30: read-out: ILS30
Description: Tests were conducted in accordance with the method for measuring antitumor activity of National Cancer Center Tokyo (A, Hoshi et al, Farumashia 9 464 (1973)). Test compounds were each intraperitoneally (referred to as ip) or orally (referred to as op) administered once a day for 5 successive days to a 6-membered group of femal mice (BDF1 family, each weighing 20 to 23 g) 24 hours after 1×10^5 cells of Leukemia L1210 have been implantated into the abdominal cavities of the mice, and the effect was evaluated by comparing the survival days of treated groups with those of an untreated group of mice (control group) in 60-day observation. An increase percentage of life span (ILS%) was calculated from said average survival days compared with those of the control group. Further, therapeutic ratio (O.D./ILD30, referred to as T.R.) of each tested compound was calculated from the daily dosage of the compound necessary to increase said average survival days by 30% as compared with the control group (this dosage is referred to as ILS 30) and the daily dosage giving a maximum increase of life span to mice implantated with L1210 cells, namely an optimum dosage (referred to as O.D.). The results of five successive days intraperitoneal administrations of test compounds were shown in Tables I to III, and those of five successive oral administrations in Table IV.

[3] = Acute toxicity (LD50, Behrens-Karber method); assay type: in vivo, ICR mice; conditions: ip, mortality during 30 days; for LD50 at 720 h: mouse, in vivo
Description: Test compounds, dissolved or suspended in 0.5% aqueous CMC, were each intraperitoneally administered to ICR mice in a dose of 0.1 ml per 10 g body weight. LD50 (mg/kg) value of each test compound was calculated from the mortality of mice during 30 days by the Behrens-Karber method.

[4] = ip once a day for 5 successive days, daily dosage giving maximum increase of life span
[5] = ip once a day for 5 successive days, daily dosage increasing average survival days by 30%
[6] = oral once a day for 5 successive days, daily dosage giving maximum increase of life span
[7] = oral once a day for 5 successive days, daily dosage increasing average survival days by 30%

Compound | O.D. (optimum dosage) (Leukemia L1210 [1]; [4]) [mg/kg] | ILS30 (Leukemia L1210 [1]; [5]) [mg/kg] | Survivors after 60 days (Leukemia L1210 [1]) | Max. ILS % (Leukemia L1210 [1]) [%] | Therapeutic ratio TR (Leukemia L1210 [1]) | O.D. (optimum dosage) (Leukemia L1210 [2]; [6]) [mg/kg] | ILS30 (Leukemia L1210 [2]; [7]) [mg/kg] | Survivors after 60 days (Leukemia L1210 [2]) | Max. ILS % (Leukemia L1210 [2]) [%] | Therapeutic ratio TR (Leukemia L1210 [2]) | LD50 [3] [mg/kg] | ED (maximum ILS) (Leukemia L1210 [1]; [4]) [mg/kg] | ED30 (Leukemia L1210 [1]; [5]) [mg/kg] | ED (maximum ILS) (Leukemia L1210 [2]; [6]) [mg/kg] | ED30 (Leukemia L1210 [2]; [7]) [mg/kg] | LD50 at 720 h [3] [mg/kg]
3-tert-butyl-3-(1-methoxy-2-methoxyethyl α-D-glucopyranose-6-yl)-1-(2-chloroethyl)-1-nitrosourea [Compound 195] | 160 | 2.89 | 6/6 | > 700 | 55.4 | 200 | 8.51 | 5/6 | > 620 | 23.5 | 540 | – | – | – | – | –
COC(C)CN(C[C@H]1O[C@H](OC(C)C)[C@H](O)[C@@H](O)[C@@H]1O)C(=O)N(CCCl)N=O (stereo partly drawn) [Compound 2, 3-(2-methoxy-n-propyl)-3-(isopropyl α-D-glucopyranose-6-yl)-1-(2-chloroethyl)-1-nitrosourea] | – | – | 6/6 | > 700 | 60.9 | – | – | 6/6 | > 700 | 24.5 | – | 140 | 2.3 | 180 | 7.35 | 420
CCOCCN(C(=O)N(CCCl)N=O)C1C(OC2CCCCC2)OC(CO)C(O)C1O [Compound 64, 3-(2-ethoxyethyl)-3-(cyclohexyl α-D-glucopyranose-2-yl)-1-(2-chloroethyl)-1-nitrosourea] | – | – | 4/6 | > 450 | 42.0 | – | – | 4/6 | > 460 | 18.2 | – | 200 | 4.76 | 240 | 13.2 | 650
CCCCOC1OC(CO)C(O)C(N(CC(C)OC)C(=O)N(CCCl)N=O)C1O [Compound 83, 3-(2-methoxy-n-propyl)-3-(n-butyl α-D-glucopyranose-3-yl)-1-(2-chloroethyl)-1-nitrosourea] | – | – | 4/6 | > 425 | 39.8 | – | – | 3/6 | > 360 | 14.3 | – | 200 | 5.03 | 240 | 16.8 | 665
COCCN(C(=O)N(CCCl)N=O)C1C(O)C(CO)OC(OC2CCCCC2)C1O [Compound 89, 3-(2-methoxyethyl)-3-(cyclohexyl α-D-glucopyranose-3-yl)-1-(2-chloroethyl)-1-nitrosourea] | – | – | 6/6 | > 700 | 63.9 | – | – | 4/6 | > 450 | 16.8 | – | 170 | 2.66 | 210 | 12.5 | 690
CCOCCO[C@H]1O[C@H](CN(C(=O)N(CCCl)N=O)C(C)C)[C@H](O)[C@H](O)[C@H]1O [Compound 113, 3-isopropyl-3-(2-ethoxyethyl α-D-galactopyranose-6-yl)-1-(2-chloroethyl)-1-nitrosourea] | – | – | 6/6 | > 700 | 67.3 | – | – | 6/6 | > 700 | 24.6 | – | 150 | 2.23 | 180 | 7.32 | 450
CCOCCN(C(=O)N(CCCl)N=O)[C@H]1[C@@H](OCC(C)C)O[C@H](CO)[C@H](O)[C@@H]1O [Compound 123, 3-(2-ethoxyethyl)-3-(isobutyl α-D-galactopyranose-2-yl)-1-(2-chloroethyl)-1-nitrosourea] | – | – | 3/6 | > 365 | 40.2 | – | – | 3/6 | > 360 | 18.2 | – | 200 | 4.98 | 240 | 13.2 | 730
COCC(C)N(C(=O)N(CCCl)N=O)[C@H]1[C@@H](O)[C@@H](CO)O[C@H](OCC(C)C)[C@@H]1O (stereo partly drawn) [Compound 126, 3-(1-methyl-2-methoxyethyl)-3-(isobutyl α-D-galactopyranose-3-yl)-1-(2-chloroethyl)-1-nitrosourea] | – | – | 3/6 | > 355 | 40.2 | – | – | 3/6 | > 350 | 15.6 | – | 250 | 6.22 | 240 | 15.4 | 785
COCC(C)N(C[C@H]1O[C@H](OC2CCCCC2)[C@@H](O)[C@@H](O)[C@H]1O)C(=O)N(CCCl)N=O (stereo partly drawn) [Compound 145, 3-(1-methyl-2-methoxyethyl)-3-(cyclohexyl α-D-talopyranose-6-yl)-1-(2-chloroethyl)-1-nitrosourea] | – | – | 6/6 | > 700 | 58.4 | – | – | 4/6 | > 450 | 18.3 | – | 170 | 2.91 | 200 | 10.9 | 580
COC(C)CN(C(=O)N(CCCl)N=O)[C@H]1CO[C@@H](OCC(C)C)[C@H](O)[C@H]1O (stereo partly drawn) [Compound 153, 3-(2-methoxy-n-propyl)-3-(isobutyl α-L-arabinopyranose-4-yl)-1-(2-chloroethyl)-1-nitrosourea] | – | – | 5/6 | > 625 | 58.4 | – | – | 4/6 | > 425 | 16.7 | – | 150 | 2.57 | 180 | 10.8 | 480
O=NN(CCCl)C(=O)N(CC1CCCO1)[C@H]1[C@H](OC2CCCCC2)OC[C@H](O)[C@@H]1O (stereo partly drawn) [Compound 156, 3-tetrahydrofurfuryl-3-(cyclohexyl α-L-arabinopyranose-2-yl)-1-(2-chloroethyl)-1-nitrosourea] | – | – | 6/6 | > 700 | 61.2 | – | – | 4/6 | > 460 | 18.4 | – | 150 | 2.45 | 180 | 9.78 | 480
COC(C)CN(C(=O)N(CCCl)N=O)[C@@H]1[C@@H](OCC(C)C)OC[C@@H](O)[C@H]1O (stereo partly drawn) [Compound 159, 3-(2-methoxy-n-propyl)-3-(isobutyl α-D-arabinopyranose-2-yl)-1-(2-chloroethyl)-1-nitrosourea] | – | – | 6/6 | > 700 | 61.3 | – | – | 5/6 | > 625 | 16.5 | – | 160 | 2.61 | 180 | 10.9 | 520
CC(C)CN(C[C@H]1O[C@@H](OC2CCCCC2)[C@@H](O)[C@@H]1O)C(=O)N(CCCl)N=O [Compound 161, 3-isobutyl-3-(cyclohexyl β-D-arabinofuranose-5-yl)-1-(2-chloroethyl)-1-nitrosourea] | – | – | 4/6 | > 440 | 47.2 | – | – | 3/6 | > 350 | 14.2 | – | 150 | 3.18 | 180 | 12.7 | 460

Reference: US4593090A, “Novel nitrosourea compounds, method for preparing same, and pharmaceutical composition containing same” (Gogo Kimura, priority 1981, dated 1986)
